Measurements taken from US6987114B1, “Antiviral pyrimidinedione derivatives and process for the preparation thereof” (Samjin Pharmaceutical Co., Ltd, priority 1999, dated 2006).
Values after ≈ are worked out from the molar mass of the structure shown. Like-named read-outs stand apart in the source and are kept apart here.

Columns and labels:
[1] = system: HIV; experiment: microbe, parasite or virus in culture; type: cell-based
Procedure, shortened: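 MT-4 cells (2.5×10^5 cells/ml) infected with 1000 CCID50 HIV, added at once to compound dilutions, incubated 4 or 5 days at 37° C. Protection from virus-induced cytopathic effect read by MTT; cytotoxicity from MTT viability of mock-infected cells in parallel.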

[2] = system: mock-infected MT-4 cells; experiment: Cytotoxicity based on viability of mock-infected host cells (MTT method); type: cell-based; conditions: mock-infected MT-4 cells, MTT method, 4 or 5 days at 37° C.
Procedure, shortened: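 Mock-infected MT-4 cells at 2.5×10^5 cells/ml were exposed to various concentrations of test compound, run in parallel with HIV-infected (1000 CCID50) cultures. After 4 or 5 days at 37° C., host-cell viability was read by MTT.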

[3] = Human immunodeficiency virus 1, MT4, HIV-infected MT-4 cells, MTT method, 4 or 5 days at 37° C., read-out: ED50 (the source's name)
[4] = Human immunodeficiency virus 1, MT4, read-out: ED50

Row | SMILES | EC50 [1, 3] [µg/mL] | CD50 [2] [µg/mL] | melting point [°C] | EC50 [1, 4] [µg/mL]
1 | CCc1c(C(=O)c2cc(C)cc(C)c2)n(Cc2cc(F)cc(F)c2)c(=O)[nH]c1=O [Example 77, 1-(3,5-Difluorobenzyl)-5-ethyl-6-(3,5-dimethylbenzoyl)-2,4-pyrimidinedione] | 0.003 (≈ 0.00753 µM) | 7.0 | 165 to 167 | –
2 | Cc1cc(C)cc(C(=O)c2c(C(C)C)c(=O)[nH]c(=O)n2Cc2cc(F)cc(F)c2)c1 [Example 78, 1-(3,5-Difluorobenzyl)-5-isopropyl-6-(3,5-dimethylbenzoyl)-2,4-pyrimidinedione] | 0.0033 (≈ 0.008 µM) | 7.1 | 207 to 209 | –
3 | CCc1c(Sc2cc(C)cc(C)c2)n(Cc2cc(Cl)cc(Cl)c2)c(=O)[nH]c1=O [Example 79, 1-(3,5-Dichlorobenzyl)-5-ethyl-6-(3,5-dimethylphenyl)thio-2,4-pyrimidinedione] | – | 24.77 | 180 to 182 | 0.052 (≈ 0.119 µM)
4 | Cc1cc(C)cc(Sc2c(C(C)C)c(=O)[nH]c(=O)n2Cc2cc(Cl)cc(Cl)c2)c1 [Example 80, 1-(3,5-Dichlorobenzyl)-5-isopropyl-6-(3,5-dimethylphenyl)thio-2,4-pyrimidinedione] | – | 46.83 | 194 to 196 | 0.049 (≈ 0.109 µM)
5 | CCc1c(Oc2cc(C)cc(C)c2)n(Cc2cc(Cl)cc(Cl)c2)c(=O)[nH]c1=O [Example 81, 1-(3,5-Dichlorobenzyl)-5-ethyl-6-(3,5-dimethylphenoxy)-2,4-pyrimidinedione] | – | >100.00 | 194 to 196 | 1.16 (≈ 2.77 µM)
6 | Cc1cc(C)cc(Oc2c(C(C)C)c(=O)[nH]c(=O)n2Cc2cc(Cl)cc(Cl)c2)c1 [Example 82, 1-(3,5-Dichlorobenzyl)-5-isopropyl-6-(3,5-dimethylphenoxy)-2,4-pyrimidinedione] | – | 36.15 | 234 to 236 | 0.173 (≈ 0.399 µM)
7 | CCc1c(C(=O)c2cc(C)cc(C)c2)n(Cc2cc(Cl)cc(Cl)c2)c(=O)[nH]c1=O [Example 83, 1-(3,5-Dichlorobenzyl)-5-ethyl-6-(3,5-dimethylbenzoyl)-2,4-pyrimidinedione] | – | 3.10 | 223 to 225 | 0.021 (≈ 0.0487 µM)
8 | Cc1cc(C)cc(C(=O)c2c(C(C)C)c(=O)[nH]c(=O)n2Cc2cc(Cl)cc(Cl)c2)c1 [Example 84, 1-(3,5-Dichlorobenzyl)-5-isopropyl-6-(3,5-dimethylbenzoyl)-2,4-pyrimidinedione] | – | 7.88 | 220 to 222 | 0.024 (≈ 0.0539 µM)
9 | CCc1c(Sc2cc(C)cc(C)c2)n(Cc2cc(Br)cc(Br)c2)c(=O)[nH]c1=O [Example 85, 1-(3,5-Dibromobenzyl)-5-ethyl-6-(3,5-dimethylphenyl)thio-2,4-pyrimidinedione] | – | 13.17 | 214 to 215 | 0.13 (≈ 0.248 µM)
10 | Cc1cc(C)cc(Sc2c(C(C)C)c(=O)[nH]c(=O)n2Cc2cc(Br)cc(Br)c2)c1 [Example 86, 1-(3,5-Dibromobenzyl)-5-isopropyl-6-(3,5-dimethylphenyl)thio-2,4-pyrimidinedione] | – | 2.11 | 225 to 226 | 0.094 (≈ 0.175 µM)
11 | CCc1c(Oc2cc(C)cc(C)c2)n(Cc2cc(Br)cc(Br)c2)c(=O)[nH]c1=O [Example 87, 1-(3,5-Dibromobenzyl)-5-ethyl-6-(3,5-dimethylphenoxy)-2,4-pyrimidinedione] | – | >100.00 | 210 to 211 | 2.05 (≈ 4.03 µM)
12 | Cc1cc(C)cc(Oc2c(C(C)C)c(=O)[nH]c(=O)n2Cc2cc(Br)cc(Br)c2)c1 [Example 88, 1-(3,5-Dibromobenzyl)-5-isopropyl-6-(3,5-dimethylphenoxy)-2,4-pyrimidinedione] | – | >100.00 | 244 to 246 | 0.42 (≈ 0.804 µM)
13 | CCc1c(C(=O)c2cc(C)cc(C)c2)n(Cc2cc(Br)cc(Br)c2)c(=O)[nH]c1=O [Example 89, 1-(3,5-Dibromobenzyl)-5-ethyl-6-(3,5-dimethylbenzoyl)-2,4-pyrimidinedione] | – | 8.75 | 234 to 236 | 0.09 (≈ 0.173 µM)
14 | Cc1cc(C)cc(C(=O)c2c(C(C)C)c(=O)[nH]c(=O)n2Cc2cc(Br)cc(Br)c2)c1 [Example 90, 1-(3,5-Dibromobenzyl)-5-isopropyl-6-(3,5-dimethylbenzoyl)-2,4-pyrimidinedione] | – | 8.90 | 223 to 225 | 0.12 (≈ 0.225 µM)
15 | CCc1c(Sc2cc(C)cc(C)c2)n(Cc2c3ccccc3cc3ccccc23)c(=O)[nH]c1=O [Example 97, 1-(Anthracen-9-ylmethyl)-5-ethyl-6-(3,5-dimethylphenyl)thio-2,4-pyrimidinedione] | – | 0.59 | 219 to 220 | > 0.59
16 | Cc1cc(C)cc(Sc2c(C(C)C)c(=O)[nH]c(=O)n2Cc2c3ccccc3cc3ccccc23)c1 [Example 98, 1-(Anthracen-9-ylmethyl)-5-isopropyl-6-(3,5-dimethylphenyl)thio-2,4-pyrimidinedione] | – | 1.75 | 129 to 131 | > 1.75
17 | CCc1c(Oc2cc(C)cc(C)c2)n(Cc2c3ccccc3cc3ccccc23)c(=O)[nH]c1=O [Example 99, 1-(Anthracen-9-ylmethyl)-5-ethyl-6-(3,5-dimethyl-phenoxy)-2,4-pyrimidinedione] | – | 4.12 | 243 to 245 | > 4.12
18 | Cc1cc(C)cc(Oc2c(C(C)C)c(=O)[nH]c(=O)n2Cc2c3ccccc3cc3ccccc23)c1 [Example 100, 1-(Anthracen-9-ylmethyl)-5-isopropyl-6-(3,5-dimethyl-phenoxy)-2,4-pyrimidinedione] | – | 2.02 | 224 to 226 | > 2.02
19 | CCc1c(C(=O)c2cc(C)cc(C)c2)n(Cc2c3ccccc3cc3ccccc23)c(=O)[nH]c1=O [Example 101, 1-(Anthracen-9-ylmethyl)-5-ethyl-6-(3,5-dimethyl-benzoyl)-2,4-pyrimidinedione] | – | 0.94 | 270 to 272 | > 0.94
20 | Cc1cc(C)cc(C(=O)c2c(C(C)C)c(=O)[nH]c(=O)n2Cc2c3ccccc3cc3ccccc23)c1 [Example 102, 1-(Anthracen-9-ylmethyl)-5-isopropyl-6-(3,5-dimethyl-benzoyl)-2,4-pyrimidinedione] | – | 4.44 | 273 to 275 | > 4.44
21 | CCc1c(Sc2cc(C)cc(C)c2)n(Cc2ccc3c(c2)C(=O)c2ccccc2C3=O)c(=O)[nH]c1=O [Example 103, 1-(Anthraquinon-2-ylmethyl)-5-ethyl-6-(3,5-dimethyl-phenyl)thio-2,4-pyrimidinedione] | > 85.2 | 85.19 | 195 to 197 | –
22 | Cc1cc(C)cc(Sc2c(C(C)C)c(=O)[nH]c(=O)n2Cc2ccc3c(c2)C(=O)c2ccccc2C3=O)c1 [Example 104, 1-(Anthraquinon-2-ylmethyl)-5-isopropyl-6-(3,5-dimethyl-phenyl)thio-2,4-pyrimidinedione] | > 100 | >100.00 | 120 to 122 | –
23 | CCc1c(Oc2cc(C)cc(C)c2)n(Cc2ccc3c(c2)C(=O)c2ccccc2C3=O)c(=O)[nH]c1=O [Example 105, 1-(Anthraquinon-2-ylmethyl)-5-ethyl-6-(3,5-dimethylphenoxy)-2,4-pyrimidinedione] | 0.52 (≈ 1.08 µM) | 5.30 | 233 to 235 | –
24 | Cc1cc(C)cc(Oc2c(C(C)C)c(=O)[nH]c(=O)n2Cc2ccc3c(c2)C(=O)c2ccccc2C3=O)c1 [Example 106, 1-(Anthraquinon-2-ylmethyl)-5-isopropyl-6-(3,5-dimethylphenoxy)-2,4-pyrimidinedione] | 0.49 (≈ 0.991 µM) | 9.49 | 246 to 248 | –
25 | CCc1c(C(=O)c2cc(C)cc(C)c2)n(Cc2ccc3c(c2)C(=O)c2ccccc2C3=O)c(=O)[nH]c1=O [Example 107, 1-(Anthraquinon-2-ylmethyl)-5-ethyl-6-(3,5-dimethylbenzoyl)-2,4-pyrimidinedione] | 0.026 (≈ 0.0528 µM) | 2.38 | 143 to 146 | –
26 | Cc1cc(C)cc(C(=O)c2c(C(C)C)c(=O)[nH]c(=O)n2Cc2ccc3c(c2)C(=O)c2ccccc2C3=O)c1 [Example 108, 1-(Anthraquinon-2-ylmethyl)-5-isopropyl-6-(3,5-dimethylbenzoyl)-2,4-pyrimidinedione] | 0.017 (≈ 0.0336 µM) | 14.41 | 156 to 158 | –
27 | CCc1c(Sc2cc(C)cc(C)c2)n(Cc2ccccn2)c(=O)[nH]c1=O [Example 109, 1-(Pyridin-2-ylmethyl)-5-ethyl-6-(3,5-dimethylphenyl)thio-2,4-pyrimidinedione] | 0.015 (≈ 0.0408 µM) | 29.72 | 217 to 219 | –
28 | Cc1cc(C)cc(Sc2c(C(C)C)c(=O)[nH]c(=O)n2Cc2ccccn2)c1 [Example 110, 1-(Pyridin-2-ylmethyl)-5-isopropyl-6-(3,5-dimethylphenyl)thio-2,4-pyrimidinedione] | 0.009 (≈ 0.0236 µM) | 9.61 | 194 to 196 | –
29 | CCc1c(Oc2cc(C)cc(C)c2)n(Cc2ccccn2)c(=O)[nH]c1=O [Example 111, 1-(Pyridin-2-ylmethyl)-5-ethyl-6-(3,5-dimethylphenoxy)-2,4-pyrimidinedione] | 0.081 (≈ 0.231 µM) | >100.00 | 215 to 217 | –
